Data from patent publication US5562922A, “Drug incorporating and release polymeric coating for bioprosthesis” (Cedars-Sinai Medical Center, priority 1995, dated 1996).
“Also recorded” adds a separate entry of the source. Each block holds one molecule with its values, some of them ahead of it.

Assays:
[1] = Uptake by polymer, elution from polymer and tissue retention compared with forskolin; conditions: compared to forskolin
[2] = Etretinate delivery to vessel wall from coated stent (similar model); conditions: rabbit
[3] = In vitro drug release from polyurethane-coated stents, coils or films; conditions: for initial release rate / release rate: release from polyurethane, Table 1A; for Total: total content
Procedure: Drug incorporation into polyurethane-coated articles
Nitinol stents or stainless steel coils with surface area similar to nitinol stents were coated with Tecoflex 85A™ polyurethane to a thickness of about 50 microns in accordance with the manufacture's instructions for coating metal surfaces.
The drug loading procedure is carried out as follows: The desired compound is dissolved in a solution containing 3 parts ethanol and 1 part tetrahydrofuran (100 mg/ml for rhodamine B and 50 mg/ml for fluorescein dilaurate and forskolin).
When a hydrophilic compound such as hirulog was loaded in the polyurethane,the polyurethane was first loaded with sphingosine or any charged lipophilic molecule as described above. With this modification, the polyurethane will swell in organic solutions containing up to 10% water. The desired compound was then dissolved as 50 mg/ml in ethanol/tertrahydrofuran/water in a ratio of 65/25/1-20. The water content will vary according to the solubility of the desired compound in this solvent system.
After incubation, all stents, coils, and films were dried overnight at 40° C. at reduced pressure. To evaluate the ability of a charged lipid soluble drug to facilitate uptake and release of a water soluble compound, thin films containing 20 mg of polyurethane with or without 1 mg of sphingosine were produced by pour plating and drying overnight at 40° C. under reduced pressure. The films were then incubated in a solution of fluorescein disodium, a water soluble dye. After incubation, films were dried as described above.
After a 15 minute preincubation (wash step), stents, coils, or films were incubated for 2-3 days in 2 ml. of phosphate buffered saline (pH=7.4) or 5% bovine serum albumin in PBS at 37° C. in a shaking water bath. […] At the end of incubations, the polyurethane was dissolved in tertrahydrofuran and an aliquot analyzed to determine the quantity of compound remaining in the polymer. […] Solutions containing fluorescein dilaurate required addition of 200 μl of 10M sodium hydroxide to convert the fluorescein dilaurate into its colored form (release the two 16-carbon fatty acid dilaurate chains from the water soluble fluorescein molecule). Forskolin content was determined by scintillation counting.

[4] = Water solubility (in words); type: physicochemical
[5] = design: species or system New Zealand white rabbits; conditions: rabbit
Procedure: (§1) For these experiments, nitinol stents were coated with Tecoflex™, to a thickness of about 50-100 microns, and then incubated in a solution containing unlabelled and tritiated forskolin with a specific activity of 25 μCi/mg. Resulting stents contained approximately 1.5 mg. of forskolin in approximately 20 mg of 50-100 micron thick polymer matrix coating.
(§2) Instantaneous blood release rates were calculated by the following formula using the conservation of mass principle: [formula] where dM=change in mass, dT=change in time, M=mass, Q=flow, C1=upstream concentration, and C2=downstream concentration. Scintillation counts were then adjusted for measured background and efficiency. The amount of forskolin present was calculated by comparison of tissue activity to a 25 uCi/mg standard. For comparison of tissue and blood forskolin concentrations, blood levels were divided by specific gravity of rabbit blood (1.050 g/ml). Statistical analysis to assess differences between the multiple sites of the tissue samples was by one-way analysis of variances (ANOVA). If significant differences were found (p<0.05), pairwise comparisons were then performed using the t-test within ANOVA corrected for multiple comparisons (Bonferoni/Least Significant Difference tests).

carotid artery [6] = tested on: carotid artery; design: species or system New Zealand white rabbits; conditions: rabbit, in vivo
Procedure: as §1, §2

carotid artery [7] = test: Rabbit carotid crush injury, low flow thrombosis model; type: in vivo, New Zealand white rabbits
Description: To evaluate the thrombogenicity of polyurethane stent coatings, a rabbit carotid crush injury, low flow thrombosis model was developed. Briefly, New Zealand white rabbits (n=14) underwent anesthesia with ketamine and xylazine followed by surgical exposure of the right carotid and left femoral arteries. A 6 french sheath was placed in the left femoral artery and a 2.0 mm transit time flow probe (Transonics) was placed in the distal carotid artery. No anticoagulant was given. Repeated crush injury with a plastic coated clamp was performed at similar force for fifteen times over a one cm. distance usually producing a small decrement in flow rate. After 5 minutes, a bare or polyurethane coated nitinol stent was advanced to straddle the area of injury and balloon expanded. After a 15 minute equilibration period during which a 3.0 mm balloon occluder was placed proximal to the stent, the occluder was inflated to reduce flow to 4 ml/min. (40% of baseline). Continuous pressure monitoring via pressure transducer placed on line in the occluder inflation system was performed to ensure maintenance of consistent occlusion.
Continuous carotid artery flow and mean blood pressure were recorded by strip chart recorder. If the flow remained <0.5 ml/min, for 5 minutes, the artery was considered occluded and experiment terminated. […] After euthanasia, the artery was removed and cut longitudinally with a scalpel. The polyurethane coating was visually inspected for defects. Presence of white or red thrombus was also noted.

carotid artery [8] = test: Carotid artery flow after stent delivery; type: in vivo, New Zealand white rabbits; conditions: 10.3±4.2 ml/min before
Procedure: as §1

intimal hyperplasia = conditions: polyvinyl alcohol based polymer beads, perivascular tissue, rats; cited from earlier work
[9] = tested on: thrombosis on the catheter; conditions: released from intravascular catheters; cited from earlier work
[10] = Film + SPH (sphingosine), n = 2, buffer not given
[11] = Film without sphingosine, n = 2, buffer not given

Molecule: CCOC(=O)/C=C(C)/C=C/C=C(C)/C=C/c1c(C)cc(OC)c(C)c1C [Etretinate]
- elution rate from the polymer [1]: decreased elution rate from the polymer
- tissue retention [1]: increased tissue retention
- uptake by the polymer [1]: increased uptake by the polymer
- concentration at 72 h ([2]; vessel wall): 185000 ng/g
- concentration at 24 h ([2]; vessel wall media): 250000 ng/g

Molecule: O=C1OC2(c3ccc(O)cc3Oc3cc(O)ccc32)c2ccccc21 [Fluorescein disodium, fluorescein disodium]
- Release Rate Day 1 [3, 10]: 16.0 µg/h
- Release Rate Day 2 [3, 10]: 4.0 µg/h
- Release Rate Day 3 [3, 10]: 2.0 µg/h
- Total ([3]; Film + SPH (sphingosine), n = 2): 1.1 mg
- Release Rate Day 1 [3, 11]: 4.0 µg/h
- Release Rate Day 2 [3, 11]: 1.8 µg/h
- Release Rate Day 3 [3, 11]: 1.8 µg/h
- Total ([3]; Film without sphingosine, n = 2): 0.3 mg
- total content and delivery rate ([3]; with the addition of sphingosine (SPH) to the matrix): improved total content; also recorded: subsequently higher delivery rate
- water solubility [4]: water soluble

Molecule: heparin
- intimal hyperplasia (intimal hyperplasia): inhibited intimal hyperplasia
- thrombosis on the catheter [9]: sufficient to decrease thrombosis on the catheter

Continued, in another order:

- Release Rate Day 1 ([3]; Coil, 5% BSA, n = 1): 3.4 µg/h
- Release Rate Day 2 ([3]; Coil, 5% BSA, n = 1): 2.3 µg/h
- Release Rate Day 1 ([3]; Film, 5% BSA, n = 2): 4.6 µg/h
- Release Rate Day 2 ([3]; Film, 5% BSA, n = 2): 3.7 µg/h
- initial release rate / release rate [3]: required 5% albumin to promote release
- water solubility [4]: insoluble in water
Molecule: CCCCCCCCCCCC(=O)Oc1ccc2c(c1)Oc1cc(OC(=O)CCCCCCCCCCC)ccc1C21OC(=O)c2ccccc21 [Fluorescein dilaurate, fluorescein dilaurate]

- in vivo release rate [5]: 7.0 µg/min
- calculated instantaneous release rate into the bloodstream, initial ([5]; in vivo): 6900 ng/min
- calculated instantaneous release rate into the bloodstream, over four hours ([5]; in vivo): 700 ng/min
- peak forskolin blood level ([5]; in vivo): 140 ng/mL
- immediate forskolin blood level ([5]; in vivo, 0 min): 57 ng/mL
- blood level ([5]; in vivo, 24 h): 68 ± 18 ng/mL
- concentration in adventitia overlying the stent relative to blood (carotid artery [6]): 360 times
- concentration in adventitia overlying the stent relative to contralateral artery (carotid artery [6]): 305 times
- concentration in media overlying the stent relative to blood (carotid artery [6]): 450 times
- concentration in media overlying the stent relative to contralateral artery (carotid artery [6]): 385 times
- forskolin levels in vessel proximal to, overlying and distal to stent (carotid artery [6]): significant levels of forskolin
- washout from the vessel wall (carotid artery [6]): rapid
- adventitia level in washout experiment, 2 hours (carotid artery [6]; 2 h): 1.7 ng/mg
- media level in washout experiment, two hours (carotid artery [6]; 2 h): 1.2 ng FSK/mg tissue
- other adjacent tissues level in washout experiment, two hours (carotid artery [6]; 2 h): < 0.6 ng/mg
- adventitia level (carotid artery [6]; 24 h): 4.1±1.8 ng FSK/mg tissue
- adventitia level in washout experiment, 24 hours (carotid artery [6]; 24 h): 0.1 ng/mg
- adventitia tissue to blood ratio (carotid artery [6]; 24 h): 61±18
- media level (carotid artery [6]; 24 h): 4.9±1.2 ng/mg tissue
- media level in washout experiment, 24 hours (carotid artery [6]; 24 h): 0.2 ng FSK/mg
- media tissue to blood ratio (carotid artery [6]; 24 h): 77±22
- other adjacent tissues level in washout experiment, 24 hours (carotid artery [6]; 24 h): < 0.1 ng/mg
- Release Rate Day 1 ([3]; Stents, PBS, n = 3): 3.8 µg/h
- Release Rate Day 2 ([3]; Stents, PBS, n = 3): 3.9 µg/h
- Release Rate Day 3 ([3]; Stents, PBS, n = 3): 1.6 µg/h
- Total ([3]; Stents, PBS, n = 3): 4.4 mg
- in vitro release rate ([3]; in vitro, compared with in vivo): 0.5 µg/min
- initial release rate / release rate [3]: slower release rate
- water solubility [4]: less soluble in aqueous solutions
Molecule: C=C[C@@]1(C)CC(=O)[C@]2(O)[C@@]3(C)[C@@H](O)CCC(C)(C)[C@@H]3[C@H](O)[C@H](OC(C)=O)[C@@]2(C)O1 [Forskolin]
- radial and longitudinal diffusion (carotid artery [6]): diffusion gradient in both longitudinal and radial directions away from the stent
- thrombosis of the stented segment (carotid artery [7]; compared to uncoated and coated stents): prevented thrombosis of the stented segment
- effect on TCF and TTO (carotid artery [7]; forskolin impregnated into the polyurethane): remarkably increased the time to cyclic flow (TCF) and time to occlusion (TTO)
- Time to Cyclic Flow (TCF) (carotid artery [7]; n = 5, p < 0.0001 compared to coated and uncoated (uncoated 16 ± 13, polymer coated 27 ± 17)): 208 ± 71 min
- Time to Occlusion (TTO) (carotid artery [7]; n = 5, uncoated 19 ± 18, polymer coated 54 ± 27): > 240 min
- stents exhibiting cyclic carotid blood flow (carotid artery [7]; number of forskolin impregnated stents, n = 5): one
- visual inspection of thrombus (carotid artery [7]; uncoated: mixed red and white thrombus, coated: predominately white thrombus): red thrombus only; also recorded: Absence of platelet rich white thrombus
- carotid artery flow at 1 min (carotid artery [8]; 1 min after stent delivery, p<0.005): 15.9 ± 2.6 mL/min
- carotid artery flow at 60 min (carotid artery [8]; 60 min after stent delivery, p<0.0001): 19.6 ± 4.4 mL/min

- Release Rate Day 1 ([3]; Coil, PBS, n = 3): 37.0 µg/h
- Release Rate Day 2 ([3]; Coil, PBS, n = 3): 5.2 µg/h
- Total ([3]; Coil, PBS, n = 3): 1.5 mg
- initial release rate / release rate [3]: highest initial release rate
Molecule: CCN(CC)c1ccc2c(-c3ccccc3C(=O)O)c3ccc(=[N+](CC)CC)cc-3oc2c1 [Rhodamine B]
